“And” between values parts separate entries of the source, which are not always exact repeats. Equal values may be shown once. Read-outs that look alike come from different tables or passages of the source.
Assays:
[1] = hepatic microsomes, SIDM vs control
[2] = Tissue distribution of tofacitinib 30 min after intravenous administration; format: in vivo, rat; conditions: 30 min after intravenous 10 mg/kg, control and SIDM rats
[3] = format: in vivo, rat; conditions: for AUC / clearance / MRT / half-life / Vd: plasma; for clearance: CL; for half-life: Terminal half-life; for Vd: VSS
P-glycoprotein (P-gp) = conditions: ref Hussa, 2014; cited from earlier work
[4] = Rat plasma protein binding by equilibrium dialysis; format: in vitro ADME; conditions: fresh plasma, pH 7.4, Plasma protein binding, range over control and SIDM rats
[5] = intestinal microsomes
[6] = ref Lawendy et al., 2009; Dowty et al., 2014; cited from earlier work
[7] = format: in vivo, rat; conditions: for CL renal: plasma and urine, CLR; for bioavailability: oral, F (bioavailability), oral 20 mg/kg vs intravenous 10 mg/kg
[8] = intravenous 10 mg/kg, SIDM rats
[9] = intravenous 10 mg/kg, SIDM vs control
[10] = intravenous 10 mg/kg, control rats
[11] = rat, iv, 10 mg/kg, control rats

## C[C@@H]1CCN(C(=O)CC#N)C[C@@H]1N(C)c1ncnc2[nH]ccc12 [tofacitinib, 3-[(3R,4R)-4-methyl-3-[methyl-(7H-pyrrolo[2,3-day]pyrimidin-4-yl)amino]piperidin-1-yl]-3-oxopropanenitrile]
[1]
  CLint faster in SIDM rats than control rats: 112%
  Km smaller in SIDM rats than control rats: 44.3%
[2]
  Tissue distribution: widely distributed
[3]; [8]
  Ae0-24 h (dose excreted in urine for 24 h): 6.64 ± 1.65 % of dose
  CLNR: 55.5 ± 9.79 mL/min/kg
  CLR estimated from the free (unbound to plasma proteins) fraction: 6.15 mL/min/kg
  Contribution of CLR to CL: 7.97%
[3]; [9]
  AUC smaller in SIDM rats than control rats: 33.6%
  CL higher in SIDM rats than control rats: 51.1%
  CLNR higher in SIDM rats than control rats: 43.8%
  CLR higher in SIDM rats than control rats: 87.5%
  Vss greater in SIDM rats than control rats: 262%
[3]; [10]
  Ae0-24 h (dose excreted in urine for 24 h): 6.99 ± 2.30 % of dose
  CLNR: 38.6 ± 8.04 mL/min/kg
  CLR estimated from the free (unbound to plasma proteins) fraction: 3.33 mL/min/kg
  Contribution of CLR to CL: 6.42%
[3]; rat, plasma and urine, iv, 10 mg/kg, CLR, control rats
  CL renal: 2.56 ± 0.59 mL/min/kg
[3]; rat, iv, 10 mg/kg, SIDM rats (n=7)
  AUC: 2830 ng·h/mL
[3]; rat, iv, 10 mg/kg, control rats (n=9)
  AUC: 4270 ng·h/mL
[3]; rat, iv, 10 mg/kg, SIDM rats
  clearance: 60.3 ± 11.1 mL/min/kg
  MRT: 44.3 min
  half-life: 26.5 ± 2.81 min
  Vd: 3.56 ± 2.38 L/kg
[3]; [11]
  clearance: 39.9 ± 6.74 mL/min/kg
  MRT: 21.3 min
  half-life: 30.2 ± 4.83 min
  Vd: 0.986 ± 0.379 L/kg
P-glycoprotein (P-gp)
  P-glycoprotein (P-gp) substrate status: substrate of P-glycoprotein
[4]
  fraction unbound at 24 h, 10 µg/mL: 0.769 to 0.781
[5]
  Km, SIDM vs control rats: comparable
[5]; SIDM vs control
  CLint faster in SIDM rats than control rats: 35.4%
[6]
  Terminal half-life: approximately 3.3 h
[7]; oral 20 mg/kg, SIDM rats
  Ae0-24 h (dose excreted in urine for 24 h): 6.94 ± 2.42 % of dose
[7]; oral 20 mg/kg, SIDM rats, 20 mg/kg
  GI24 h (dose remaining in the gastrointestinal tract at 24 h): 0.238 % of dose and 0.238 ± 0.160 % of dose
[7]; oral 20 mg/kg, SIDM vs control
  AUC lower in SIDM rats than control rats: 55.5%
  CLR higher in SIDM rats than control rats: 145%
  Cmax lower in SIDM rats than control rats: 61.1%
[7]; oral 20 mg/kg, SIDM vs control, 20 mg/kg
  Decrease of F (bioavailability) in SIDM rats vs control rats: 33%
[7]; oral 20 mg/kg, control rats
  Ae0-24 h (dose excreted in urine for 24 h): 7.98 ± 1.34 % of dose
[7]; oral 20 mg/kg, control rats, 20 mg/kg
  GI24 h (dose remaining in the gastrointestinal tract at 24 h): 0.177 % of dose and 0.177 ± 0.123 % of dose
[7]; rat, po, 20 mg/kg, oral 20 mg/kg, SIDM rats
  CL renal: 21.7 ± 14.9 mL/min/kg
[7]; rat, po, 20 mg/kg, oral 20 mg/kg, control rats
  CL renal: 8.86 ± 13.5 mL/min/kg
[7]; rat, plasma, 20 mg/kg, SIDM rats
  bioavailability: 23.8%
[7]; rat, plasma, 20 mg/kg, control rats
  bioavailability: 35.5%
[7]; rat, plasma, po, 20 mg/kg, oral 20 mg/kg, SIDM rats (n=7)
  AUC: 1350 ng·h/mL
[7]; rat, plasma, po, 20 mg/kg, oral 20 mg/kg, control rats (n=8)
  AUC: 3030 ng·h/mL
[7]; rat, plasma, po, 20 mg/kg, Cmax, oral 20 mg/kg, SIDM rats
  Cmax: 680 ± 360 ng/mL
[7]; rat, plasma, po, 20 mg/kg, oral 20 mg/kg, SIDM rats
  Tmax: 25.7 min
[7]; rat, plasma, po, 20 mg/kg, oral 20 mg/kg, control rats
  Tmax: 17.9 min

Reference: article PMC7327145 (Biomolecules & Therapeutics, 2020)
